Target: T1, NLRP3 (Mus musculus, UniProt Q8R4B8)
T1 construct: Macrophages from C57BL/6 mice were differentiated from bone marrow; endogenous in cells; host or cells: primary bone marrow-derived macrophages (BMDM) from C57BL/6 mice
Test: NLRP3 inflammasome assay: IL-1β secretion from LPS-primed, ATP-stimulated murine BMDM (Table 1)
Assay type: cell-based, murine (C57BL/6 mice)
Settings: ATP 2.5 mM 1 h, ELISA, read-out: IC50 (NLRP3 inhibitory activity)
Protocol: The NLRP3-inhibitory effect of a number of the above compounds was tested by measuring the IL-1β secretion from murine bone marrow derived macrophages (BMDM) primed with lipopolysaccharide (LPS), treated with test compound (to a maximum concentration of 200 μM) and finally stimulated with the NLRP3 stimulus ATP. The half-maximal inhibitory concentration (IC50) was determined for each compound and compared to a number of comparative examples (CE 1-10) including commercially available oral sulphonylureas (CE1-6) and the known NLRP3 inhibitor MCC 950 (CE7). The experimental protocol was as follows.
The University of Queensland Animal Ethics Committee approved all experimental protocols involving mice.
NLRP3 INFLAMMASOME ASSAY: BMDM were seeded at 1×10^6 cells/mL in 96 well plates. The following day the overnight medium was replaced with Opti-MEM® reduced serum medium (Life Technologies) and cells were stimulated with 100 ng/mL ultrapure E. coli K12 LPS (Invivogen) for 3 h. Compounds were prepared from a 10 mM stock by serial dilution in 80% DMSO/20% 10 mM ammonium bicarbonate. […] IL-1β levels in cell-free supernatants were analysed by ELISA (ReadySetGo!® eBioscience).

T1 sequence (Q8R4B8 whole entry): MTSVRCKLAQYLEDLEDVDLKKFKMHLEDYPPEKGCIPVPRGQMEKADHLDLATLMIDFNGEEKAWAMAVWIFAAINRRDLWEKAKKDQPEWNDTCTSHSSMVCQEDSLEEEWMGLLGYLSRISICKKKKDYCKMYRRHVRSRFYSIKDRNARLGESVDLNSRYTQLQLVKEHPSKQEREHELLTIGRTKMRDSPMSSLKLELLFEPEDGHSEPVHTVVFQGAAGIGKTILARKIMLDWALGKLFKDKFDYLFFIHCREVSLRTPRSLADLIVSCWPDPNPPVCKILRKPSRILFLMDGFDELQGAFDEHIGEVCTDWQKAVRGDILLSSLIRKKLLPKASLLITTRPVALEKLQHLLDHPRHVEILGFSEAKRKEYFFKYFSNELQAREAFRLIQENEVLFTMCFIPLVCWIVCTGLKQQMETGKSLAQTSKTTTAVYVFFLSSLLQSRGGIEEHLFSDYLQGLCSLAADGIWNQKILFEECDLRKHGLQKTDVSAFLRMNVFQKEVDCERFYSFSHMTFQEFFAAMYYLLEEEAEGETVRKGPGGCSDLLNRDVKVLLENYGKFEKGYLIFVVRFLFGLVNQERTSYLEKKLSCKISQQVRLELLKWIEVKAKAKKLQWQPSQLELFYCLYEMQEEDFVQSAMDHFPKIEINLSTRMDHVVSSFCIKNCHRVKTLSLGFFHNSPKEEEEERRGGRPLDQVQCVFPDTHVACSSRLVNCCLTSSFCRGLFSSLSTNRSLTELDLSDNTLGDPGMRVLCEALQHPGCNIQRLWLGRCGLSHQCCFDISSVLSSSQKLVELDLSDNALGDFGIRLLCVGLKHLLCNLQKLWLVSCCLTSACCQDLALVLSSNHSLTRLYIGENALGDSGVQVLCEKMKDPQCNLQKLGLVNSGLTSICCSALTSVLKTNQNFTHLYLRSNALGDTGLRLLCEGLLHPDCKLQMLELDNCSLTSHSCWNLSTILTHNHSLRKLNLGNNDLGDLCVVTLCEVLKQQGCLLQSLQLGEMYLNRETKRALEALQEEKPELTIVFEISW

| IC50 | SMILES |
| --- | --- |
| < 1000 nM | Nc1ccc(S(=O)(=O)NC(=O)Nc2c3c(cc4c2CCC4)CCC3)cc1 [CE8] |
| > 50000 nM | CCC1=C(C)CN(C(=O)NCCc2ccc(S(=O)(=O)NC(=O)N[C@H]3CC[C@H](C)CC3)cc2)C1=O [CE6, Glimepiride] |
| > 200000 nM | CC(=O)c1ccc(S(=O)(=O)NC(=O)NC2CCCCC2)cc1 [CE1, Acetohexamide] |
| < 1000 nM | O=C(Nc1c2c(cc3c1CCC3)CCC2)NS(=O)(=O)c1ccc2c(c1)CCC2 [CE9] |
| > 50000 nM | Cc1cc(C(=O)NCCc2ccc(S(=O)(=O)NC(=O)NN3CCCCCC3)cc2)no1 [CE4, Glisoxepide] |
| < 1000 nM | O=C(Nc1c2c(cc3c1CCC3)CCC2)NS(=O)(=O)c1ccc([N+](=O)[O-])cc1 [CE10] |
| > 200000 nM | Cc1cnc(C(=O)NCCc2ccc(S(=O)(=O)NC(=O)NC3CCCCC3)cc2)cn1 [CE3, Glipizide] |
| > 50000 nM | COc1ccc2c(c1)C(=O)N(CCc1ccc(S(=O)(=O)NC(=O)NC3CCCCC3)cc1)C(=O)C2(C)C [CE5, Gliquidone] |

Further lines, the molecule ahead of its results:

| SMILES | IC50 |
| --- | --- |
| Cc1cnc(C(=O)NCCc2ccc(S(=O)(=O)NC(=O)Nc3c4c(cc5c3CCC5)CCC4)cc2)cn1 [Example 3, N-(4-(N-((1,2,3,5,6,7-Hexahydro-s-indacen-4-yl)carbamoyl)sulfamoyl)phenethyl)-5-methylpyrazine-2-carboxamide] | < 1000 nM |
| CC(=O)c1ccc(S(=O)(=O)NC(=O)Nc2c3c(cc4c2CCC4)CCC3)cc1 [Example 1, 4-Acetyl-N-((1,2,3,5,6,7-hexahydro-s-indacen-4-yl)carbamoyl) benzenesulfonamide] | < 1000 nM |

System: MIN6 cells
Test: MIN6 insulin assay (insulin secretion, radioimmunoassay)
Assay type: cell-based
Settings: 10 μM test compound, 2.8 mM glucose KRB, 1 h; FIG. 1
Protocol: To confirm the insulinotropic properties of the compounds of the invention, their ability to stimulate insulin secretion from MIN6 cells at a single concentration (10 μM) was tested using the following protocol. The tests were conducted by the Garvan Institute of Medical Research, Sydney, Australia.
MIN6 INSULIN ASSAY PROTOCOL: MIN6 cells (passage 29-37) were incubated for 1 h in Krebs-Ringer buffer (KRB) containing 2.8 mM glucose. The cells were then stimulated for 1 h in either 2.8 mM glucose KRB, 20 mM glucose KRB, or 2.8 mM glucose KRB plus test compound. Supernatants were collected and then assayed using rat insulin radioimmunoassay kit (RI-13K, Merck Millipore).

| SMILES | insulin secretion from MIN6 cells |
| --- | --- |
| CC(C)(O)c1coc(S(=O)(=O)NC(=O)Nc2c3c(cc4c2CCC4)CCC3)c1 [CE7, MCC 950] | basal levels of insulin secretion |

Target: T2, NLRP3 (Homo sapiens, UniProt Q96P20)
T2 construct: To generate HMDM, human monocytes are isolated from buffy coat blood; endogenous in cells; host or cells: human monocyte-derived macrophages (HMDM) from CD14+ buffy coat monocytes
Test: HMDM NLRP3 inflammasome assay, IL-1β secretion (Table 2)
Assay type: cell-based
Settings: human monocyte derived macrophages

T2 sequence (Q96P20 whole entry): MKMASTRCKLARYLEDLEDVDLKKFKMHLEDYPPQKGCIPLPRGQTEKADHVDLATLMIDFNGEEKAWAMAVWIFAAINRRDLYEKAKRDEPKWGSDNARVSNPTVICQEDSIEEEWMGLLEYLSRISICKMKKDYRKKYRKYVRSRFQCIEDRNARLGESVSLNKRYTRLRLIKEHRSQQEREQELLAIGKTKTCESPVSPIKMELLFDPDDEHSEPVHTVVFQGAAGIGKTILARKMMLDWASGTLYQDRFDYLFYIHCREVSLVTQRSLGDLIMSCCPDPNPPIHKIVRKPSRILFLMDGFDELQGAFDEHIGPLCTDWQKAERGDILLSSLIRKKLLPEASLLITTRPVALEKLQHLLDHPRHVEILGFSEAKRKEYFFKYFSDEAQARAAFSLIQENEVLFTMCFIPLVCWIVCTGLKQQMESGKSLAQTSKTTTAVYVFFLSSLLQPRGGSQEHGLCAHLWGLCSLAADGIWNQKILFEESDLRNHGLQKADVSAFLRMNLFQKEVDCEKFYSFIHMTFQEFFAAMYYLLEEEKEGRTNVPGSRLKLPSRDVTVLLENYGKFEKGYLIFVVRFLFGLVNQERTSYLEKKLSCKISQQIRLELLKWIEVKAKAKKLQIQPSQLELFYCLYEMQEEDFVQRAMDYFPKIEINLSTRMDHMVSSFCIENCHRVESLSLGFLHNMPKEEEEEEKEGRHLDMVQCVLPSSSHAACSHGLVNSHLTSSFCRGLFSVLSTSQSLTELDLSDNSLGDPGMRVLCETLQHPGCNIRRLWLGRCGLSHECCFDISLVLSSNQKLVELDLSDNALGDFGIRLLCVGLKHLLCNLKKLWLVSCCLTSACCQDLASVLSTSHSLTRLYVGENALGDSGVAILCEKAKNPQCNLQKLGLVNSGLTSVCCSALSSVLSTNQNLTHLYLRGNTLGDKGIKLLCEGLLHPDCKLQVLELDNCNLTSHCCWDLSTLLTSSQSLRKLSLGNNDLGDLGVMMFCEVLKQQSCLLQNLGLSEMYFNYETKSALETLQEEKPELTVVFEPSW

| SMILES | IC50 |
| --- | --- |
| O=C(Nc1c2c(cc3c1CCC3)CCC2)NS(=O)(=O)c1cccc(C(=O)O)c1 [Example 10, 3-(N-((1,2,3,5,6,7-Hexahydro-s-indacen-4-yl)carbamoyl)sulfamoyl)-benzoic acid] | < 1000 nM |
| C#CCNC(=O)CCc1ccc(S(=O)(=O)NC(=O)Nc2c3c(cc4c2CCC4)CCC3)cc1 [Example 13, 3-(4-(N-((1,2,3,5,6,7-Hexahydro-s-indacen-4-yl)carbamoyl)sulfamoyl)-phenyl)-N-(prop-2-yn-1-yl)propanamide] | < 1000 nM |
